Results taken from PubChem BioAssay (NCI).
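Grown in 96-well plates, cells were treated for 48 hours with each compound at five concentrations. Insufficient inhibition: endpoint recorded as highest concentration tested. GI50 marks 50% less growth. Definition used: TGI = concentration required for complete inhibition of growth.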

Tests used:
Assay in all cases: NCI anticancer screen, dose series, 48 h
[1] = tested on: LOX IMVI melanoma
[2] = tested on: PC-3 prostate
[3] = tested on: UACC-257 melanoma
[4] = tested on: MCF7 breast
[5] = tested on: CAKI-1 renal
[6] = tested on: MDA-N
[7] = tested on: UACC-62 melanoma
[8] = tested on: NCI-H226 lung
[9] = tested on: SR leukemia
[10] = tested on: RPMI-8226 leukemia
[11] = tested on: SF-295 CNS
[12] = tested on: CCRF-CEM leukemia
[13] = tested on: OVCAR-3 ovarian
[14] = tested on: MDA-MB-231 breast
[15] = tested on: HT29 colon
[16] = tested on: COLO 205 colon
[17] = tested on: BT-549 breast
[18] = tested on: NCI-H460 lung
[19] = tested on: SF-268 CNS
[20] = tested on: M14 melanoma
[21] = tested on: HL-60(TB) leukemia
[22] = tested on: HOP-92 NSCLC
[23] = tested on: HOP-62 NSCLC
[24] = tested on: OVCAR-5 ovarian
[25] = tested on: NCI/ADR-RES ovarian
[26] = tested on: EKVX NSCLC
[27] = tested on: K-562 leukemia
[28] = tested on: DU-145 prostate
[29] = tested on: SK-MEL-2 melanoma
[30] = tested on: MDA-MB-435
[31] = tested on: NCI-H23 lung
[32] = tested on: SN12C renal
[33] = tested on: T-47D breast
[34] = tested on: SK-OV-3 ovarian
[35] = tested on: SF-539 CNS
[36] = tested on: 786-0 renal
[37] = tested on: UO-31 renal
[38] = tested on: HCT-116 colon
[39] = tested on: KM12 colon
[40] = tested on: OVCAR-8 ovarian
[41] = tested on: SK-MEL-28 melanoma
[42] = tested on: U251 CNS
[43] = tested on: OVCAR-4 ovarian
[44] = tested on: ACHN renal
[45] = tested on: MOLT-4 leukemia
[46] = tested on: A549 NSCLC
[47] = tested on: HCT-15 colon
[48] = tested on: SW-620 colon
[49] = tested on: RXF 393 renal
[50] = tested on: SNB-19 CNS
[51] = tested on: SNB-75 CNS
[52] = tested on: IGROV1 ovarian
[53] = tested on: A498 renal
[54] = tested on: HCC-2998 colon
[55] = tested on: TK-10 renal
[56] = tested on: HS 578T breast
[57] = tested on: MALME-3M melanoma
[58] = tested on: NCI-H522 lung
[59] = tested on: SK-MEL-5 melanoma

N#Cc1c(=O)c2cccnc2n2c1[nH]c1ccccc12
TGI [1]: > 100 µM | TGI [2]: > 100 µM | TGI [3]: > 100 µM | TGI [4]: > 100 µM | TGI [5]: > 100 µM | TGI [6]: > 100 µM | TGI [7]: > 100 µM | TGI [8]: > 100 µM | TGI [9]: > 100 µM | TGI [10]: > 100 µM | TGI [11]: > 100 µM | TGI [12]: > 100 µM | TGI [13]: > 100 µM | TGI [14]: > 100 µM | TGI [15]: > 100 µM | TGI [16]: > 100 µM | TGI [17]: > 100 µM | TGI [18]: > 100 µM | TGI [19]: > 100 µM | TGI [20]: > 100 µM | TGI [21]: > 100 µM | TGI [22]: 68.4 µM | TGI [23]: > 100 µM | TGI [24]: > 100 µM | TGI [25]: > 100 µM | TGI [26]: > 100 µM | TGI [27]: > 100 µM | TGI [28]: > 100 µM | TGI [29]: > 100 µM | TGI [30]: > 100 µM | TGI [31]: > 100 µM | TGI [32]: > 100 µM | TGI [33]: > 100 µM | TGI [34]: > 100 µM | TGI [35]: > 100 µM | TGI [36]: > 100 µM | TGI [37]: > 100 µM | TGI [38]: > 100 µM | TGI [39]: > 100 µM | TGI [40]: > 100 µM | TGI [41]: > 100 µM | TGI [42]: > 100 µM | TGI [43]: > 100 µM | TGI [44]: > 100 µM | TGI [45]: > 100 µM | TGI [46]: > 100 µM | TGI [47]: > 100 µM | TGI [48]: > 100 µM | TGI [49]: > 100 µM | TGI [50]: > 100 µM | TGI [51]: > 100 µM | TGI [52]: > 100 µM | TGI [53]: > 100 µM | TGI [54]: > 100 µM | TGI [55]: > 100 µM | TGI [56]: 69.9 µM

CC[C@@]1(OC(=O)CN)C(=O)OCc2c1cc1n(c2=O)Cc2cc3cc(N)ccc3nc2-1
GI50 [1]: < 0.01 µM | TGI [1]: 0.103 µM | GI50 [2]: 0.0711 µM | TGI [2]: > 100 µM | GI50 [3]: 0.0887 µM | TGI [3]: 1.66 µM | GI50 [4]: < 0.01 µM | TGI [4]: > 100 µM | GI50 [5]: < 0.01 µM | TGI [5]: 0.0398 µM | GI50 [6]: 0.0772 µM | TGI [6]: 1.09 µM | GI50 [7]: < 0.01 µM | TGI [7]: 0.0994 µM | GI50 [8]: < 0.0152 µM | TGI [8]: 0.388 µM | GI50 [57]: 0.195 µM | TGI [57]: 2.52 µM | GI50 [11]: < 0.01 µM | TGI [11]: > 100 µM | GI50 [12]: < 0.01 µM | GI50 [13]: 0.181 µM | TGI [13]: 0.848 µM | GI50 [14]: 0.769 µM | TGI [14]: > 100 µM | GI50 [15]: 0.127 µM | TGI [15]: > 100 µM | GI50 [16]: 0.287 µM | TGI [16]: 2.22 µM | GI50 [17]: 1.3 µM | TGI [17]: > 100 µM | GI50 [18]: < 0.01 µM | GI50 [19]: < 0.01 µM | GI50 [20]: < 0.01 µM | TGI [20]: 0.122 µM | GI50 [58]: 0.0139 µM | TGI [58]: 0.34 µM | GI50 [22]: < 0.01 µM | TGI [22]: 0.0705 µM | GI50 [23]: < 0.01 µM | TGI [23]: 0.847 µM | GI50 [24]: 0.15 µM | GI50 [25]: < 0.0103 µM | TGI [25]: 0.125 µM | GI50 [26]: 0.465 µM | TGI [26]: > 100 µM | GI50 [28]: < 0.01 µM | TGI [28]: > 76.5 µM | GI50 [29]: < 0.0441 µM | TGI [29]: 0.421 µM | GI50 [30]: 0.0802 µM | TGI [30]: 0.381 µM | GI50 [31]: < 0.01 µM | TGI [31]: 0.0246 µM | GI50 [32]: < 0.01 µM | TGI [32]: > 100 µM | GI50 [33]: < 0.0359 µM | TGI [33]: > 100 µM | GI50 [59]: 0.0181 µM | TGI [59]: 0.141 µM | GI50 [35]: < 0.01 µM | TGI [35]: 0.0126 µM | GI50 [36]: < 0.01 µM | TGI [36]: 0.0409 µM | GI50 [37]: < 0.0113 µM | GI50 [39]: 0.12 µM | TGI [39]: 0.811 µM | GI50 [41]: 0.753 µM | TGI [41]: > 100 µM | GI50 [42]: < 0.01 µM | GI50 [43]: 0.363 µM | TGI [43]: 2.7 µM | GI50 [44]: < 0.01 µM | TGI [44]: 0.151 µM | GI50 [45]: < 0.01 µM | GI50 [46]: < 0.0176 µM | TGI [46]: 1.45 µM | GI50 [47]: 0.153 µM | TGI [47]: > 20.3 µM | GI50 [48]: 0.0231 µM | TGI [48]: > 100 µM | GI50 [49]: 0.044 µM | TGI [49]: 0.371 µM | GI50 [50]: < 0.01 µM | TGI [50]: > 100 µM | GI50 [51]: < 0.017 µM | GI50 [52]: 0.0974 µM | TGI [52]: 1.39 µM | GI50 [53]: 0.0322 µM | TGI [53]: 0.337 µM | GI50 [55]: 2.19 µM | TGI [55]: > 100 µM | GI50 [56]: 1.97 µM | TGI [56]: > 100 µM

CNc1ccc2nc(-c3ccc(OC(=O)N(C)C)cc3)cn2c1
TGI [1]: 31.6 µM | TGI [2]: 29.5 µM | TGI [3]: > 100 µM | TGI [4]: 43.6 µM | TGI [5]: 44.7 µM | TGI [6]: 38 µM | TGI [7]: 35.1 µM | TGI [8]: 37.4 µM | TGI [9]: 44.1 µM | TGI [57]: > 100 µM | TGI [11]: 31.5 µM | TGI [12]: 32.3 µM | TGI [13]: > 100 µM | TGI [14]: 31.5 µM | TGI [15]: 34 µM | TGI [16]: 32.2 µM | TGI [17]: 31.6 µM | TGI [18]: 34.4 µM | TGI [19]: 30 µM | TGI [20]: 36.9 µM | TGI [21]: 62.3 µM | TGI [58]: 28.8 µM | TGI [22]: 50 µM | TGI [23]: 32.9 µM | TGI [24]: 46 µM | TGI [25]: 59.1 µM | TGI [26]: 33.4 µM | TGI [27]: 49.7 µM | TGI [28]: > 100 µM | TGI [29]: 31.8 µM | TGI [30]: 30.7 µM | TGI [31]: 40.4 µM | TGI [32]: 27.2 µM | TGI [33]: 47.2 µM | TGI [59]: 57.1 µM | TGI [34]: 33 µM | TGI [36]: 27.6 µM | TGI [37]: 35.4 µM | TGI [38]: 33.5 µM | TGI [39]: 32.3 µM | TGI [40]: 30.3 µM | TGI [41]: > 100 µM | TGI [42]: 28.8 µM | TGI [43]: 31.6 µM | TGI [44]: 37.3 µM | TGI [45]: 43 µM | TGI [46]: 32.4 µM | TGI [47]: 40.2 µM | TGI [48]: 51.4 µM | TGI [49]: 26.1 µM | TGI [50]: 29.6 µM | TGI [52]: 31.8 µM | TGI [53]: 32.2 µM | TGI [54]: 81.2 µM | TGI [55]: 34.3 µM | TGI [56]: > 100 µM
